These results are taken from patent US12492373B2, “Production method for nerve tissue” (Racthera Co., Ltd., priority 2014, dated 2025).

What all share (type): cell-based
Assay [1] relates to human iPS cells (1231A3 strain). Briefly: Form of cell aggregate in suspension culturing, bright field observation (good / medium / bad form). The following applies: step 1 for 1 day: SB431542 5 μM or LDN193189 100 nM; day 9.
For assay [2] the test system is unchanged. Briefly: Neural tissue / neuroepithelium formation in cell aggregates, bright field observation. As to conditions: for cell aggregate growth and neuroepithelium formation: step 1 for 1 day: SB431542 5 μM or LDN193189 100 nM, both U-bottom plate and F-bottom culture dish, day 19. Here is the method: The above human iPS cells were treated with the cell dispersion solution by using TrypLE Select (Life Technologies), further dispersed into single cells by pipetting operation, and the above human iPS cells dispersed into single cells were suspended in 100 μl of a serum-free medium at 1.2×10^4 cells per well of a non-cell-adhesive 96-well culture plate ([…], manufactured by SUMITOMO BAKELITE), and subjected to suspension culturing at 37° C., 5% CO2. As the serum-free medium (gfCDM+KSR) therefor, a serum-free medium which is a 1:1 mixture of F-12 medium and IMDM medium supplemented with 10% KSR, 450 μM 1-monothioglycerol, 1× Chemically defined lipid concentrate was used. At the time of the start of suspension culturing (day 0 after the start of suspension culturing, start of step 2), Y27632 (final concentration 20 μM) was added to the above serum-free medium. By day 2 after the start of suspension culturing, cell aggregates were formed under both conditions with preconditioning and conditions without preconditioning (step 2 completed, step 3 start). On day 3 after the start of suspension culturing, a serum-free medium (50 μl) free of Y27632 was added. On day 6 or later after the start of suspension culturing, a half amount of the medium was changed to the above serum-free medium free of Y27632 once per 2-4 days. In the half-medium change operation, a half volume, namely 75 μl, of the medium in the culture vessel was discarded, the above fresh serum-free medium (75 μl) was added to make the total medium amount 150 μl. […]
At the time of the start of suspension culturing (day 0 after the start of suspension culturing, start of step 2), the cells were cultured under the following 2 conditions including condition 1 and condition 2. As condition 1(+SAG), at the time of the start of suspension culturing, Y27632 (final concentration 20 μM) and SAG (Shh signal transduction pathway activating substance, 300 nM) were added to the above serum-free medium. As condition 2(−SAG), at the time of the start of suspension culturing, Y27632 (final concentration 20 μM) was added to the above serum-free medium and SAG was not added. By day 2 after the start of suspension culturing, cell aggregates were formed (step 2 completed, step 3 start) under both conditions. On day 3 after the start of suspension culturing, a medium (50 μl) free of Y27632, SAG and containing human recombinant BMP4 (manufactured by R&D) was added such that the final concentration of exogenous human recombinant BMP4 was 1.5 nM (55 ng/ml). On day 6 after the start of suspension culturing, a half amount of the medium was changed with a serum-free medium free of Y27632, SAG and human recombinant BMP4. Thereafter, a half amount of the medium was changed, once every 2-4 days, with the above serum-free medium free of Y27632, SAG, and human recombinant BMP4.
The thus-prepared cells were subjected to bright field observation on day 18 after the start of suspension culturing under an inverted microscope (KEYENCE) (FIG. 15).
At the time of the start of suspension culturing (day 0 after the start of suspension culturing, start of step 2), the cells were cultured under the following 2 conditions including condition 1 and condition 2. As condition 1(+SAG), at the time of the start of suspension culturing, Y27632 (final concentration 20 μM) and SAG (Shh signal transduction pathway activating substance, final concentration 30 nM) were added to the above serum-free medium. As condition 2(−SAG), at the time of the start of suspension culturing, Y27632 (final concentration 20 μM) was added to the above serum-free medium and SAG was not added. By day 2 after the start of suspension culturing, cell aggregates were formed under both conditions (step 2 completed, step 3 start). […]

The test system is the same in assay [3]. Briefly: Immunostaining of aggregate sections for neural tissue markers Nestin, TuJ1, PSA-NCAM. An excerpt: Furthermore, cell aggregates on day 23 after the start of suspension culturing, which were produced from the above iPS cells that underwent a preconditioning treatment as a starting material (conditions of FIG. 5B) were fixed with 4% para-formaldehyde to prepare frozen sections. […] Furthermore, it could be confirmed from the analysis of serial sections, that the regions that could be determined to be neural tissue by morphology observation in the bright field under an inverted microscope were Nestin-positive, TuJ1-positive, and PSA-NCAM-positive (FIG. 5C-E).
Furthermore, the above cell aggregates on day 23 after the start of suspension culturing, which were produced from the above iPS cells that underwent a preconditioning treatment with TGFβR inhibitor (SB431542) or BMPR inhibitor (LDN193189) as a starting material were fixed with 4% para-formaldehyde to prepare frozen sections. […] Furthermore, it could be confirmed from the analysis of serial sections, that the regions that could be identified to be neural tissue by morphology observation in the bright field images were Nestin-positive, TuJ1-positive, and PSA-NCAM-positive (FIG. 8A-F).
Cell aggregates were prepared according to the method described in Example 10 by using, as a starting material, human iPS cells using Essential 8 medium as a feeder-free culturing, TGFβR inhibiting substance (SB431542) in step 1, and a Shh signal transduction pathway activating substance in step 2. The cell aggregates on day 18 after the start of suspension culturing were fixed with 4% para-formaldehyde to prepare frozen section. […] Furthermore, it could be confirmed from the analysis of serial sections, that the regions that could be identified to be neural tissue by morphology observation in the bright field images were Nestin-positive, TuJ1-positive, and PSA-NCAM-positive (FIG. 11).

The mark [4] stands for this setting: LDN193189 100 nM 1 day in step 1, day 23.
Setting [5] is: step 1 for 1 day: SB431542 5 μM, LDN193189 100 nM or SAG 300 nM, SAG 300 nM in step 2, with or without BMP4 1.5 nM in step 3, day 23.
The mark [6] stands for this setting: LDN193189 100 nM in step 1, no SAG in step 2, StemFit, day 23.
Setting [7] is: SB431542 5 μM or LDN193189 100 nM in step 1, SAG 300 nM in step 2, StemFit, day 23.
The mark [8] stands for this setting: Essential 8 medium, SB431542 in step 1, SAG in step 2, day 18.

`c1ccc2c(-c3cnn4cc(-c5ccc(N6CCNCC6)cc5)cnc34)ccnc2c1` [LDN193189, 4-[6-(4-piperazin-1-ylphenyl)pyrazolo[1,5-a]pyrimidin-3-yl]quinoline]: the “shape of cell aggregate in step 3 compared with untreated group” value in assay [1] is reported as “good shape of a cell aggregate”. In addition, in assay [2] (setting [4]), the “cell aggregate containing a neural tissue (maintained, neural tissue not less than 10%)” value is on record as “about 100%”; the “cell aggregate with a bad form (collapsed, neural tissue not more than 3%)” value is reported as “about 0%”; the “cell aggregate with a medium level form (maintained, neural tissue not more than 10%)” value is recorded as “about 0%”; the “neural tissue formation in step 3” value is on record as “a neural tissue having a neuroepithelial structure was formed”. Besides, in assay [2] (SAG 300 nM in step 2), the “cell aggregate growth and neuroepithelium formation” value was “a cell aggregate grew and neuroepithelium was formed”. In assay [2] (setting [5]), the “cell aggregate and neural tissue formation” value is “a neural tissue can be formed efficiently”. Besides, in assay [3] (setting [6]), the “proportion of Nestin-positive cells in the total cells” value (“proportion of Nestin-positive cells” below) is given as “about 20%”, the “proportion of PSA-NCAM-positive cells in the total cells” value is “about 70%” and the “proportion of TuJ1-positive cells in the total cells” value (“proportion of TuJ1-positive cells” for short) is “about 70%”. Moreover, in assay [3] (setting [7]), the “proportion of Nestin-positive cells” value was “about 20%”, the “proportion of PSA-NCAM-positive cells” value was “about 70%” and the “proportion of TuJ1-positive cells” value is reported as “about 70%”.
Turning to `CNC1CCC(N(Cc2cccc(-c3ccncc3)c2)C(=O)c2sc3ccccc3c2Cl)CC1` (stereo not shown) [SAG], the “cell aggregate and neural tissue formation” value is on record as “a neural tissue could be formed efficiently” in assay [2] (step 1: SAG 300 nM for 24-144 hr, co-presence of A83-01 0.5 μM for the last 24 hr, SAG 30 nM added or not in step 2, day 16); “a neural tissue can be formed efficiently” in assay [2] (step 1: SAG 300 nM for 48 or 72 hr, or A83-01 0.5 μM and SAG 300 nM for 24, 48 or 72 hr, SAG 30 nM added or not added in step 2, BMP4 1.5 nM on day 3, day 17); “a neural tissue can be formed efficiently” in assay [2] (setting [5]).
With `NC(=O)c1ccc(-c2nc(-c3ccc4c(c3)OCO4)c(-c3ccccn3)[nH]2)cc1` [SB431542, 4-(5-benzol[1,3]dioxol-5-yl-4-pyridin-2-yl-1H-imidazol-2-yl)-benzamide], the “shape of cell aggregate in step 3 compared with untreated group” value in assay [1] is “good shape of cell aggregate”. The “cell aggregate growth and neuroepithelium formation” value in assay [2] (SAG 300 nM in step 2) was “a cell aggregate grew and neuroepithelium was formed”. Moreover, the “cell aggregate and neural tissue formation” value in assay [2] (setting [5]) is “a neural tissue can be formed efficiently”. In addition, in assay [3] (setting [8]), the “proportion of Nestin-positive cells” value is reported as “about 30%”, the “proportion of PSA-NCAM-positive cells” value was “about 70%” and the “proportion of TuJ1-positive cells” value is “about 70%”. For the same compound, in assay [3] (setting [7]), the “proportion of Nestin-positive cells” value is listed as “about 20%”, the “proportion of PSA-NCAM-positive cells” value was “about 70%” and the “proportion of TuJ1-positive cells” value is recorded as “about 70%”.
